pEC50: −log10 of the molar value.
Columns and labels:
[1] = target: T1, purified human recombinant GK (Homo sapiens, UniProt P35557); experiment: Glucokinase activity assay (coupled enzymatic GK/G6PD assay, NADH absorbance at 340 nm); type: biochemical; details: for pEC50: EC50 of % change in S0.5 of glucokinase for glucose, sigmoidal fit, read-out: EC50 (with respect to % ΔS0.5); for Emax: Emax of % change in S0.5, vehicle S0.5 = 0%, 0 mM glucose = 100%, read-out: % Emax (with respect to % ΔS0.5)
T1 sequence (P35557 1-465): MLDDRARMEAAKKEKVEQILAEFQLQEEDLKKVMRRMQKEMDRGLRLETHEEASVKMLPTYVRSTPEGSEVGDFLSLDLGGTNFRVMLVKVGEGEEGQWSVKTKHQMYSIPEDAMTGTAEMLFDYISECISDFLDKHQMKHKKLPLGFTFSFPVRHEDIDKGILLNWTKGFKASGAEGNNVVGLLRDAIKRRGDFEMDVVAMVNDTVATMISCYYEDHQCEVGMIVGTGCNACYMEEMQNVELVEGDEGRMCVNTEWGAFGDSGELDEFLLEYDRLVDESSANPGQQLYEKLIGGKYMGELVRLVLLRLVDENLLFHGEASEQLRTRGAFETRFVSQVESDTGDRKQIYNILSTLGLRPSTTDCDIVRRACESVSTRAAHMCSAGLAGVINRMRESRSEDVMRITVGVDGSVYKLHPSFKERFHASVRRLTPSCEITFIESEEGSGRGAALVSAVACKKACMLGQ
From the text: The glucokinase (GK) assay is a coupled enzymatic assay. GK catalyzes the first step of glycolysis, the conversion of glucose to glucose-6-phosphate (G6P) in the presence of ATP. G6P in turn is converted by glucose-6-phosphate dehydrogenase (G6PD) to 6-phosphogluconate, a process that requires NAD, resulting in NADH formation. Since the GK-catalyzed step is the rate-limiting step of this coupled enzymatic process, the rate of accumulation of 6-phosphogluconate and NADH is directly proportional to the rate of glucose phosphorylation by GK. The rate of the GK-catalyzed reaction can therefore be measured by monitoring the increase in NADH absorbance at 340 nm.
The assay is carried out according to the protocol outlined in Hariharan et al (1997), Diabetes 46: 11-16. Briefly, the test compounds are incubated in a reaction mix containing 25 mM HEPES (pH 7.2), 10 mM MgCl2, 100 mM KCl, 5 mM ATP, 2 mM DTT, 0.5 mM NAD, 1 U/ml Leuconostoc mesenteroides G6PD, 0.3 U/ml of purified human recombinant GK, and different concentrations of glucose. Enzymatic activity is calculated from the initial reaction velocity, measured from the change in NADH absorbance as a function of time.
Compounds described in formula (I), in concentration ranges from 1.0 nM to […] are tested in the purified human recombinant glucokinase assay described above.
A compound is considered to be a glucokinase activator if it, in its testable range of concentrations, yields a higher rate of glucose phosphorylation than in its absence at a particular glucose concentration, for example at 5 mM glucose.
Compounds of general formula (I) are tested in the in vitro GK enzymatic assay to monitor dose-dependent effect on glucokinase activation (in kinetic mode), as described above, at various glucose concentrations. The S0.5 of glucokinase for glucose at different concentration of each compound of interest is calculated from the following modified version of the Michaelis-Menten equation, V=Vmax[S]^n/(S0.5^n+[S]^n), where [S] is the glucose concentration and n is the Hill coefficient (taken as 1.7 to account for the sigmoidal kinetics of glucokinase with respect to glucose). The S0.5 is plotted against the log of the compound concentration. The change in the S0.5 of glucokinase (ΔS0.5) for glucose is calculated by subtracting the S0.5 at each concentration of the compound from the S0.5 in the vehicle control. The ΔS0.5 is then normalized to a percent scale, where the S0.5 in the vehicle control is set to 0% and 0 mM glucose is set to 100%. The % ΔS0.5 is then plotted against the log of the compound concentration. The EC50 and Emax of % change in S0.5 is obtained from the sigmoidal fit of the data. Detailed protocol has been described in our copending application no. WO 2008/104994 which is incorporated herein by reference. Characterization data of some representative glucokinase activators of the present disclosure, which are illustrative but not limiting, are given in table 1 below.

[2] = system: primary rat hepatocytes; experiment: Measurement of glycogen synthesis in primary rat hepatocytes; type: cell-based; details: Rattus norvegicus, Hepatocyte, 3 h, 10 μM compound, 10 mM glucose, fold increase over DMSO control
Method: Primary hepatocytes are collected from male Wistar rats, and tested for viability by trypan blue exclusion. Primary hepatocytes cultures with viability greater than 95% are selected for the glycogen synthesis assay. The cells are seeded in a 48-well plate at a density of 200,000 cells/well in 250 μl Minimal Essential Medium (MEM) containing 10% foetal calf serum (FCS) and 1.7 μM insulin, and incubated for 4 hours at 37° C. to allow attachment. The medium is replaced with fresh MEM containing 10% FCS, 1.7 μM insulin and 10 nM dexamethasone, and the cells are incubated for 16 hours at 37° C. The medium is then replaced with fresh MEM (serum-free) containing 2 μCi/ml of D-[U^14C]-Glucose along with 10 μM of the compound in a final DMSO concentration of 0.1%. The final glucose concentration is brought to 10 mM by the addition of D-Glucose (MEM already contains 5 mM glucose). The cells are incubated for 3 hours at 37° C. The cells are washed twice with 150 mM NaCl, lysed with 0.1 N NaOH, and the lysate precipitated with 8% w/v trichloroacetic acid (TCA) and 1 mg/well unlabeled glycogen as carrier. Cell debris is pelleted by centrifugation, the supernatant is removed, and the glycogen is precipitated with 63% ethanol. After another round of centrifugation, the supernatant is removed, and the pellet containing the precipitated glycogen is dried overnight. De novo synthesized glycogen is estimated in a scintillation counter (MicroBeta Trilux, Perkin Elmer), and expressed as fold increase over DMSO control.
The protocol for the glycogen assay is based on the method described in “Biochem J. 1990 Feb. 15; 266(1): 91-102” with a few minor modifications. The protocol for isolation of primary rat hepatocytes is based on the method described in “Methods in Enzymology, Vol. III. pp 34-50. Ed. by S. P. Colowick and N. O. Kaplan. New York, Academic Press, 1957” with a few minor modifications.
Compounds described in formula (I), in concentration ranges from 1.0 nM to 500 μM, are tested in glycogen synthesis assay described above.

SMILES: O=C(Nc1nccs1)C(Oc1ccc(F)cc1F)c1ccc(S(=O)(=O)C2CCCC2)cc1 (stereo not shown) [Example A10, 2-(4-Cyclopentanesulfonylphenyl)-2-(2,4-difluorophenoxy)-N-thiazol-2-yl-acetamide]
- pEC50 [1]: 6.96
- Emax [1]: 95%
- fold induction at 10 µM [2]: 4.3

SMILES: O=C(Nc1ncc(F)s1)C(Oc1ccc(F)cc1F)c1ccc(S(=O)(=O)C2CC2)cc1 (stereo not shown) [Example A3, 2-(4-Cyclopropanesulfonylphenyl)-2-(2,4-difluorophenoxy)-N-(5-fluorothiazol-2-yl)-acetamide]
- pEC50 [1]: 6.70
- Emax [1]: 95%
- fold induction at 10 µM [2]: 2.9

SMILES: O=C(Nc1nc2cccnc2s1)C(OC1CCOCC1)c1ccc(S(=O)(=O)C2CC2)cc1 (single isomer, unassigned; (-)) [Example H10A, (−)2-(4-Cyclopropanesulfonyl-phenyl)-2-(tetrahydro-pyran-4-yloxy)-N-thiazolo[5,4-b]pyridin-2-yl-acetamide]
- pEC50 [1]: 6.82
- Emax [1]: 94%
- fold induction at 10 µM [2]: 4.1

SMILES: O=C(O)Cc1nc(NC(=O)C(Oc2ccc(F)cc2F)c2ccc(S(=O)(=O)C3CCCC3)cc2)sc1Cl (single isomer, unassigned; (-)) [Example E2, (−)-{5-Chloro-2-[2-(4-cyclopentanesulfonyl-phenyl)-2-(2,4-difluorophenoxy)acetyl-amino]thiazol-4-yl}-acetic acid]
- pEC50 [1]: 6.43
- Emax [1]: 95%
- fold induction at 10 µM [2]: 8.8

SMILES: O=C(O)c1ccc(Oc2cnc(NC(=O)C(OC3CCOCC3)c3ccc(S(=O)(=O)C4CC4)cc3)s2)c(F)c1 (stereo not shown) [Example B94, 4-{2-[2-(4-Cyclopropanesulfonyl-phenyl)-2-(tetrahydro-pyran-4-yloxy)-acetylamino]-thiazol-5-yloxy}-3-fluoro-benzoic acid]
- fold induction at 10 µM [2]: 8.7

SMILES: COc1cnc(NC(=O)C(Oc2ccc(F)cc2F)c2ccc(S(=O)(=O)C3CC3)cc2)s1 (stereo not shown) [Example A75, 2-(4-Cyclopropanesulfonyl-phenyl)-2-(2,4-difluoro-phenoxy)-N-(5-methoxy-thiazol-2-yl)-acetamide]
- pEC50 [1]: 7.12
- Emax [1]: 93%
- fold induction at 10 µM [2]: 7.1

SMILES: O=C(Nc1ncc(Oc2ccc(C(=O)N3CCC3)cc2)s1)C(OC1CCOCC1)c1ccc(S(=O)(=O)C2CC2)cc1 (stereo not shown) [Example G6]
- pEC50 [1]: 6.96
- Emax [1]: 90%
- fold induction at 10 µM [2]: 6.2

SMILES: CC(=O)Nc1cccc(OC(C(=O)Nc2nc(CC(=O)O)c(Cl)s2)c2ccc(S(=O)(=O)C3CC3)cc2)c1 (stereo not shown) [Example B20, {2-[2-(3-Acetylaminophenoxy)-2-(4-cyclopropanesulfonylphenyl)acetylamino]-5-chloro-thiazol-4-yl}acetic acid]
- pEC50 [1]: 5.17
- Emax [1]: 90%
- fold induction at 10 µM [2]: 6.8

SMILES: COc1ccc2nc(NC(=O)C(OC3CCOCC3)c3ccc(S(=O)(=O)C4CC4)cc3)sc2n1 (single isomer, unassigned; (+)) [Example H12A, (+)2-(4-Cyclopropanesulfonyl-phenyl)-N-(5-methoxy-thiazolo[5,4-b]pyridin-2-yl)-2-(tetrahydro-pyran-4-yloxy)-Acetamide]
- fold induction at 10 µM [2]: 5

SMILES: CC(=O)Nc1cccc(OC(C(=O)Nc2ncc(F)s2)c2ccc(S(=O)(=O)C3CC3)cc2)c1 (stereo not shown) [Example A29, 2-(3-Acetylaminophenoxy)-2-(4-cyclopropanesulfonylphenyl)-N-(5-fluoro-thiazol-2-yl)acetamide]
- pEC50 [1]: 6.23
- Emax [1]: 90%

SMILES: CCOc1sc(NC(=O)C(Oc2ccc(F)cc2F)c2ccc(S(=O)(=O)C3CC3)cc2)nc1CC(=O)O (stereo not shown) [Example B22, {2-[2-(4-Cyclopropanesulfonylphenyl)-2-(2,4-difluorophenoxy)acetylamino]-5-ethoxy-thiazol-4-yl}acetic acid]
- pEC50 [1]: < 5.00

SMILES: Cc1csc(NC(=O)C(Oc2ccc(F)cc2F)c2ccc(S(=O)(=O)C3CC3)cc2)n1 (stereo not shown) [Example A15, 2-(4-Cyclopropanesulfonylphenyl)-2-(2,4-difluorophenoxy)-N-(4-methyl-thiazol-2-yl)acetamide]
- fold induction at 10 µM [2]: 3.7

SMILES: Cn1ccc(NC(=O)C(Oc2ccc(F)cc2F)c2ccc(S(=O)(=O)C3CCCC3)cc2)n1 (stereo not shown) [Example A38, 2-(4-Cyclopentanesulfonylphenyl)-2-(2,4-difluorophenoxy)-N-(1-methyl-1H-pyrazol-3-yl)acetamide]
- pEC50 [1]: 6.41
- Emax [1]: 95%

SMILES: O=C(O)Cc1nc(NC(=O)C(Oc2ccc(F)cc2F)c2ccc(S(=O)(=O)C3CCCCC3)cc2)sc1Cl (stereo not shown) [Example B15, {5-Chloro-2-[2-(4-cyclohexanesulfonylphenyl)-2-(2,4-difluorophenoxy)acetylamino]-thiazol-4-yl}acetic acid]
- pEC50 [1]: 6.17
- Emax [1]: 95%

SMILES: O=C(Nc1cc[nH]n1)C(Oc1ccc(F)cc1F)c1ccc(S(=O)(=O)C2CCCC2)c(Cl)c1 (stereo not shown) [Example A37, 2-(3-Chloro-4-cyclopentanesulfonylphenyl)-2-(2,4-difluorophenoxy)-N-(1H-pyrazol-3-yl)acetamide]
- pEC50 [1]: 5.70
- Emax [1]: 90%

SMILES: O=C(O)c1ccc(Oc2cnc(NC(=O)C(O[C@@H]3CCOC3)c3ccc(S(=O)(=O)C4CC4)cc3)s2)cc1 (single isomer, unassigned) [Example H9A]
- pEC50 [1]: 7.66

SMILES: N#Cc1ccc(Oc2cnc(NC(=O)C(OC3CCOCC3)c3ccc(S(=O)(=O)C4CC4)cc3)s2)cc1 (stereo not shown) [Example A117, N-[5-(4-Cyano-phenoxy)-thiazol-2-yl]-2-(4-cyclopropanesulfonyl-phenyl)-2-(tetrahydro-pyran-4-yloxy)-acetamide]
- pEC50 [1]: 6.82
- Emax [1]: 92%

SMILES: O=C(O)c1ccc(Oc2cnc(NC(=O)C(OC3CCOCC3)c3ccc(S(=O)(=O)C4CC4)cc3)s2)cc1 (single isomer, unassigned; (+)) [Example H7A, (+) 4-{2-[2-(4-Cyclopropanesulfonyl-phenyl)-2-(tetrahydro-pyran-4-yloxy)-acetylamino]-thiazol-5-yloxy}-benzoic acid]
- fold induction at 10 µM [2]: 7.7
